From ChEMBL document CHEMBL1158018 (J Nat Prod, 1999)

Tests used:
[1] = target: Prostaglandin G/H synthase 1 (Homo sapiens, UniProt P23219); assay: Inhibition of PGHS1 assessed as conversion of arachidonic acid to prostaglandin
[2] = Antioxidant activity in liposomal model assessed as inhibition of ferrous ion-induced lipid peroxidation at 2 mM; format: functional; set-up: scale not given: the % may be the effect or the level left

Chain of Prostaglandin G/H synthase 1 (P23219 whole entry): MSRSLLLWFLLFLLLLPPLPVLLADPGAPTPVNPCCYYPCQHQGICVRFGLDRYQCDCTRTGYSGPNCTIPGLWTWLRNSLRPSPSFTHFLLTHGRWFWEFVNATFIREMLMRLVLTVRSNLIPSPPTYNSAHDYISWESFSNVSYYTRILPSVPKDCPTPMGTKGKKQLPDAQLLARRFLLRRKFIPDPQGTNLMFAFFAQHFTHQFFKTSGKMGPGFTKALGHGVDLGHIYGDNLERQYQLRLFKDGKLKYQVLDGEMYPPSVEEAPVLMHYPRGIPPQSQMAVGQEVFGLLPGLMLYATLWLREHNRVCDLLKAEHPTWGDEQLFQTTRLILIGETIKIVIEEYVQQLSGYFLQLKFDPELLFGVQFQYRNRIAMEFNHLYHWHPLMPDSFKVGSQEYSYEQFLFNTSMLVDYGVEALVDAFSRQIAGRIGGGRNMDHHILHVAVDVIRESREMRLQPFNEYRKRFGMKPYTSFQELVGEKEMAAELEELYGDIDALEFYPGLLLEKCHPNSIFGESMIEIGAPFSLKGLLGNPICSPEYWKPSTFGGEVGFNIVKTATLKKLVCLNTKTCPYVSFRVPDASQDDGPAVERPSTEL

- IC50 [1]: 90 µM
Structure (SMILES): Oc1cc(O)c2cc(O)c(-c3ccc(O)c(O)c3)[o+]c2c1 [CYANIDIN]
- Activity [2]: 57%
